In ChEMBL document CHEMBL1201862, “PubChem BioAssay data set” (2004):
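Grown in 96-well plates, cells were treated for 48 hours with each compound at five concentrations. Insufficient inhibition: endpoint recorded as highest concentration tested. GI50: concentration for 50% inhibition of growth.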 Activity calls are given as the source filed them. No stated cut-off is given here; in the data, active = GI50 up to about 1.1 µM and inactive = higher.

Key:
Assay in all cases: NCI anticancer screen, dose series, 48 h
HCC 2998 = test system: HCC 2998
RXF 393 = test system: RXF 393
SW-620 = test system: SW-620
SNB-19 = test system: SNB-19
OVCAR-4 = test system: OVCAR-4
KM12 = test system: KM12
OVCAR-3 = test system: OVCAR-3
MOLT-4 = test system: MOLT-4
ACHN = test system: ACHN
COLO 205 = test system: COLO 205
NCI-H522 = test system: NCI-H522
SF-268 = test system: SF-268
SK-OV-3 = test system: SK-OV-3
PC-3 = test system: PC-3
BT-549 = test system: BT-549
SF-539 = test system: SF-539
T47D = test system: T47D
TK-10 = test system: TK-10
Hs-578T = test system: Hs-578T
HCT-15 = test system: HCT-15

Row | Structure (SMILES) | GI50 (HCC 2998) | GI50 (RXF 393) | GI50 (SW-620) | GI50 (SNB-19) | GI50 (OVCAR-4) | GI50 (KM12) | GI50 (OVCAR-3) | GI50 (MOLT-4) | GI50 (ACHN) | GI50 (COLO 205) | GI50 (NCI-H522) | GI50 (SF-268) | GI50 (SK-OV-3) | GI50 (PC-3) | GI50 (BT-549) | GI50 (SF-539) | GI50 (T47D) | GI50 (TK-10) | GI50 (Hs-578T) | GI50 (HCT-15) [µM]
1 | O=C1c2ccccc2C(=O)c2c(NC3CCCCC3)ccc(Nc3ccc(S(=O)(=O)O)cc3)c21 | 26.5 µM (inactive) | 83.6 µM (inactive) | 35.2 µM (inactive) | 84.5 µM (inactive) | 33.9 µM (inactive) | 30.9 µM (inactive) | 28.2 µM (inactive) | 34.9 µM (inactive) | 38.8 µM (inactive) | 20.1 µM (inactive) | 20.6 µM (inactive) | 34.8 µM (inactive) | > 100 µM (inactive) | 22.6 µM (inactive) | 43.8 µM (inactive) | 32.2 µM (inactive) | 29 µM (inactive) | > 100 µM (inactive) | > 100 µM (inactive) | 32.6
2 | N#CCc1nc(-c2ccccc2)n[nH]1 | > 100 µM (inactive) | > 100 µM (inactive) | > 100 µM (inactive) | 74 µM (inactive) | > 100 µM (inactive) | > 100 µM (inactive) | > 100 µM (inactive) | > 100 µM (inactive) | > 100 µM (inactive) | > 100 µM (inactive) | > 100 µM (inactive) | > 100 µM (inactive) | > 100 µM (inactive) | > 100 µM (inactive) | > 100 µM (inactive) | > 100 µM (inactive) | > 100 µM (inactive) | > 100 µM (inactive) | 77.4 µM (inactive) | > 100
3 | COC(=O)C1=C(C(=O)OC)SC(=C2S[C@@H]3[C@@H]4C[C@H]([C@@H]3S2)[C@H]2C(=O)OC(=O)[C@@H]42)S1 | > 100 µM (inactive) | > 100 µM (inactive) | > 100 µM (inactive) | > 100 µM (inactive) | > 100 µM (inactive) | > 100 µM (inactive) | > 100 µM (inactive) | > 100 µM (inactive) | > 100 µM (inactive) | > 100 µM (inactive) | > 100 µM (inactive) | > 100 µM (inactive) |  | > 100 µM (inactive) | > 100 µM (inactive) | > 100 µM (inactive) | > 100 µM (inactive) | > 100 µM (inactive) | > 100 µM (inactive) | > 100
4 | COc1cc(S(=O)(=O)Nc2ccc(-c3csc(N4C(=O)C(Cl)C4c4ccccc4O)n3)cc2)ccc1Cl (centres undefined) | 15.1 µM (inactive) | 19.9 µM (inactive) | 32.3 µM (inactive) | > 100 µM (inactive) | 26.4 µM (inactive) | 33 µM (inactive) | > 100 µM (inactive) | 9.59 µM (inactive) | 76.7 µM (inactive) | 23.9 µM (inactive) | 1.51 µM (inactive) | 25.8 µM (inactive) | > 100 µM (inactive) | 42.3 µM (inactive) | 29 µM (inactive) | 30.5 µM (inactive) | 13.1 µM (inactive) |  | 0.748 µM (active) | > 100
5 | CC(C)N/C(=N\C#N)NS(=O)(=O)c1cnccc1Nc1ccc(Cl)cc1 | > 100 µM (inactive) | > 100 µM (inactive) | > 100 µM (inactive) | > 100 µM (inactive) | > 100 µM (inactive) | > 100 µM (inactive) | > 100 µM (inactive) | > 100 µM (inactive) | > 100 µM (inactive) | > 100 µM (inactive) | > 100 µM (inactive) | > 100 µM (inactive) | > 100 µM (inactive) | > 100 µM (inactive) | > 100 µM (inactive) |  | > 100 µM (inactive) | > 100 µM (inactive) | > 100 µM (inactive) | > 100
6 | CC/C=C/C[C@H](O)[C@H]1C[C@H]2O[C@H](CC(=O)OC)C[C@H]2O1 | > 100 µM (inactive) | > 100 µM (inactive) | > 100 µM (inactive) | > 100 µM (inactive) | > 100 µM (inactive) | > 100 µM (inactive) | > 100 µM (inactive) | > 100 µM (inactive) | > 100 µM (inactive) | > 100 µM (inactive) | > 100 µM (inactive) | > 100 µM (inactive) | > 100 µM (inactive) | > 100 µM (inactive) | > 100 µM (inactive) |  | > 100 µM (inactive) |  | > 100 µM (inactive) | > 100
7 | O=C(NCCCNCCCCNCCCNC(=O)C(F)(F)F)C(F)(F)F | 76.4 µM (inactive) | > 100 µM (inactive) | 54.8 µM (inactive) |  | > 100 µM (inactive) | > 100 µM (inactive) | > 100 µM (inactive) | 0.359 µM (active) | > 100 µM (inactive) | > 100 µM (inactive) | > 100 µM (inactive) | > 100 µM (inactive) | > 100 µM (inactive) | > 100 µM (inactive) | > 100 µM (inactive) | > 100 µM (inactive) | > 100 µM (inactive) | > 100 µM (inactive) | > 100 µM (inactive) | > 100
